Laboratory results from patent publication US12404241B2 (Celgene Corporation, priority 2018, dated 2025).

Molecular target: T1, AR (Homo sapiens, UniProt P10275)
T1 construct: endogenous in cells; host or cells: VCaP cells
T1 sequence (P10275 1-920): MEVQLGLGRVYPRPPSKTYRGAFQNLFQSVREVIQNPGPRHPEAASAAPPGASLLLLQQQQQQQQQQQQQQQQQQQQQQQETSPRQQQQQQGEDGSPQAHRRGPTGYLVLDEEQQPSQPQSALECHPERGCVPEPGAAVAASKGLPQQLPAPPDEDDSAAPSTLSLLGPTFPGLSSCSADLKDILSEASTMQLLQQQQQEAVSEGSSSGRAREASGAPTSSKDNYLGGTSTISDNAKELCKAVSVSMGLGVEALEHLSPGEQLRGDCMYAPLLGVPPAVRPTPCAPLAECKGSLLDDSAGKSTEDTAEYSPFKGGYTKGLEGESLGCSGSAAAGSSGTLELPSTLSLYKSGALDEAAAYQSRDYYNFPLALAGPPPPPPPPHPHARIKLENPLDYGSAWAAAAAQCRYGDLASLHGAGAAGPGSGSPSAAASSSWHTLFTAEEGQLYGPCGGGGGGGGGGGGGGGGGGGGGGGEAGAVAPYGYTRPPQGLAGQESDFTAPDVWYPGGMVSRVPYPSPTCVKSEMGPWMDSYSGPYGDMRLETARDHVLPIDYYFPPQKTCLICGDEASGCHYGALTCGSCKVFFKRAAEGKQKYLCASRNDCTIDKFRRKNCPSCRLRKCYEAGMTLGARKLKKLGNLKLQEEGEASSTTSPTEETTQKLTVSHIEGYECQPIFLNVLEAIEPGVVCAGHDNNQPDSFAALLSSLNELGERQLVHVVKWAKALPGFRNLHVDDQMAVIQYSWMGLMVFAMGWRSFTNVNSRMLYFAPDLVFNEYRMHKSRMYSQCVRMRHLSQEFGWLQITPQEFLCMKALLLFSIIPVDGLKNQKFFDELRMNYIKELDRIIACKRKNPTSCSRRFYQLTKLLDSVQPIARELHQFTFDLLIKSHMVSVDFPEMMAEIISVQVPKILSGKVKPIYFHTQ
Assay: VCAP AR Degradation Assay
Type: cell-based
Conditions: for Y (AR degradation efficiency, % of DMSO control): class symbols *; for DC50: class symbols A-C, read-out: DC50
Method in brief: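 AR protein in lysates quantified by sandwich ELISA after 24 h exposure of VCaP cells at 37 °C to 10 concentrations (1:3 steps, 5 μM top, final). Four-parameter logistic fit of percent-of-DMSO levels gave DC50 (50% degradation), EC50 and minimal AR level Y.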

SMILES	Y (AR degradation efficiency, % of DMSO control)	DC50 [nM]
CC(C)c1cc(N2C(=S)N(c3cnc(C#N)c(C(F)(F)F)c3)C(=O)C2(C)C)ccc1OCCN1CCN(CC(=O)Nc2cccc(NC3CCC(=O)NC3=O)c2)[C@H](C(F)(F)F)C1 (stereo partly drawn) [Example 256, 2-((S)-4-(2-(4-(3-(6-cyano-5-(trifluoromethyl)pyridin-3-yl)-5,5-dimethyl-4-oxo-2-thioxoimidazolidin-1-yl)-2-isopropylphenoxy)ethyl)-2-(trifluoromethyl)piperazin-1-yl)-N-(3-(2,6-dioxopiperidin-3-ylamino)phenyl)acetamide]	** (25%<Y<=35%)	100 to 500
CC(C)c1cc(N2C(=S)N(c3ccc(C#N)c(C(F)(F)F)c3)C(=O)C2(C)C)ccc1OCCN1CCN(CC(=O)Nc2cccc(NC3CCC(=O)NC3=O)c2)[C@H](C(F)(F)F)C1 (stereo partly drawn) [Example 257, 2-((S)-4-(2-(4-(3-(4-cyano-3-(trifluoromethyl)phenyl)-5,5-dimethyl-4-oxo-2-thioxoimidazolidin-1-yl)-2-isopropylphenoxy)ethyl)-2-(trifluoromethyl)piperazin-1-yl)-N-(3-(2,6-dioxopiperidin-3-ylamino)phenyl)acetamide]	*** (35%<Y<50%)	500 to 1000
C[C@@H]1CN(CCOc2ccc(N3C(=S)N(c4cnc(C#N)c(C(F)(F)F)c4)C(=O)C3(C)C)cc2C(C)(F)F)C[C@H](C)N1CC(=O)Nc1cc(C#N)cc(NC2CCC(=O)NC2=O)c1 (stereo partly drawn) [Example 258, N-(3-cyano-5-(2,6-dioxopiperidin-3-ylamino)phenyl)-2-((2S,6R)-4-(2-(4-(3-(6-cyano-5-(trifluoromethyl)pyridin-3-yl)-5,5-dimethyl-4-oxo-2-thioxoimidazolidin-1-yl)-2-(1,1-difluoroethyl)phenoxy)ethyl)-2.6-dimethylpiperazin-1-yl)acetamide]	* (0<Y<=25%)	< 100
C[C@@H]1CN(CCOc2ccc(N3C(=S)N(c4ccc(C#N)c(C(F)(F)F)c4)C(=O)C3(C)C)cc2C2CCC2)C[C@H](C)N1CC(=O)Nc1cccc(NC2CCC(=O)NC2=O)c1 (stereo partly drawn) [Example 259, 2-((2R,6S)-4-(2-(4-(3-(4-cyano-3-(trifluoromethyl)phenyl)-5,5-dimethyl-4-oxo-2-thioxoimidazolidin-1-yl)-2-cyclobutylphenoxy)ethyl)-2,6-dimethylpiperazin-1-yl)-N-(3-(2,6-dioxopiperidin-3-ylamino)phenyl)acetamide]	* (0<Y<=25%)	< 100
CCc1cc(N2C(=S)N(c3ccc(C#N)c(C(F)(F)F)c3)C(=O)C2(C)C)ccc1OCCN1CCN(CC(=O)Nc2cccc(NC3CCC(=O)NC3=O)c2)[C@H](CC)C1 (stereo partly drawn) [Example 260, 2-((R)-4-(2-(4-(3-(4-cyano-3-(trifluoromethyl)phenyl)-5,5-dimethyl-4-oxo-2-thioxoimidazolidin-1-yl)-2-ethylphenoxy)ethyl)-2-ethylpiperazin-1-yl)-N-(3-(2,6-dioxopiperidin-3-ylamino)phenyl)acetamide]	* (0<Y<=25%)	100 to 500
CC[C@@H]1CN(CCOc2ccc(N3C(=S)N(c4ccc(C#N)c(C(F)(F)F)c4)C(=O)C3(C)C)cc2C2CC2)CCN1CC(=O)Nc1cccc(NC2CCC(=O)NC2=O)c1 (stereo partly drawn) [Example 261, 2-((R)-4-(2-(4-(3-(4-cyano-3-(trifluoromethyl)phenyl)-5,5-dimethyl-4-oxo-2-thioxoimidazolidin-1-yl)-2-cyclopropylphenoxy)ethyl)-2-ethylpiperazin-1-yl)-N-(3-(2,6-dioxopiperidin-3-ylamino)phenyl)acetamide]	** (25%<Y<=35%)	100 to 500
